Measured values published in US20130115174A1, “TRANSMUCOSAL COMPOSITION CONTAINING ANTHOCYANINS FOR ALLEVIATING A VISUAL DISCOMFORT” (priority 2010, published 2013).
Like-named read-outs stand apart in the source and are kept apart here.

Legend:
[1] = Digestive versus sublingual absorption, plasmatic level 1 hour after administration; assay type: in vivo, Rats; details: for concentration at 1 h: rat, plasma, read-out: Plasmatic lutein concentration
Experimental: Taurin and Lutein plasmatic level are evaluated using HPLC process as described Lallemand F. et al, 2004 and Shanmugam S, et al, 2011, respectively.

[2] = set-up: species or system Rats (OFA, Sprague-Dawlay); details: rat, in vivo
Experimental: The stick gum administered to Rats contains 5 mg of vegetal extract titrated at 25% of anthocyanosides (i.e. 1.250 μg of anthocyanosides).
The Sprague Dawley rat (10 Males) used extensively in medical research weighing 450-520 g were received and placed separately in cage in room temperature controlled (22° C.). […] Rats were maintained in dark periode condition and fed a diet (755 g/kg wheat starch, 150 g/kg casein, 50 g/kg peanut oil, 35 g/kg AlN-93M mineral mixture, 10 g/kg AlN-76A vitamin mixture) during 2 weeks (Felgines, C. et al. J. Nutr 2002).
The stick gum was deposited at the buccal mucosa area.
Peripheral blood was collected 1 hour post-administration, centrifuged and plasma was acidified through formic acid addition. After acidification, plasma samples were conserved at −80° C. and analyzed by LC-MS/MS (Liquid Chromatography—Mass Spectrometer/Mass Spectrometer).
In parallel, epithelium and conjunctive tissues were collected 45 minutes post-administration, placed in formic acid and eventually conserved at −80° C. Before LC-MS/MS analyze, tissues were washed in PBS (phosphate buffered saline) and homogenized on ice. Protein concentrations were determined by Lowry method. To facilitate tissues preparation, samples were homogenized and treated with 2.5% trypsin and 2% collagenase during 1.5 h at 37° C., and then acidified with formic acid. […]

absorption, lingual way as compared to the digestive way ([1]; Example 5, rats) | concentration at 1 h ([1]; oral, Digestive, 6 mg/kg) [ng/mL] | concentration at 1 h ([1]; oral, Digestive, 12 mg/kg) [ng/mL] | concentration at 1 h ([1]; other: sublingual, Sublingual, 6 mg/kg) [ng/mL] | concentration at 1 h ([1]; other: sublingual, Sublingual, 12 mg/kg) [ng/mL] | absorption in the tissues and in the plasma [2] | Molecule
more effective | 34 | 32 | 120 | 160 | – | CC1=C[C@H](O)CC(C)(C)[C@H]1/C=C/C(C)=C/C=C/C(C)=C/C=C/C=C(C)/C=C/C=C(C)/C=C/C1=C(C)C[C@@H](O)CC1(C)C [lutein, Lutein]
– | – | – | – | – | significantly absorbed | Anthocyanin
